Results reported in ChEMBL document CHEMBL1212839 (J Med Chem, 2010).

Assays:
[1] = molecular target: T1, Mu-type opioid receptor (Rattus norvegicus, UniProt P33535); assay: Agonist activity at rat mu opioid receptor expressed in mouse HN9.10 cells assessed as [35S]GTPgammaS binding; type: functional, cell-based
[2] = molecular target: Substance-P receptor (Homo sapiens, UniProt P25103); assay: Displacement of [3H]substance P frome human NK1 receptor
[3] = molecular target: Mu-type opioid receptor (Rattus norvegicus) (UniProt P33535); assay: Agonist activity at rat mu opioid receptor expressed in mouse HN9.10 cells assessed as [35S]GTPgammaS binding relative to control; type: functional, cell-based
Mu-type opioid receptor (Rattus norvegicus), sequence (P33535 whole entry): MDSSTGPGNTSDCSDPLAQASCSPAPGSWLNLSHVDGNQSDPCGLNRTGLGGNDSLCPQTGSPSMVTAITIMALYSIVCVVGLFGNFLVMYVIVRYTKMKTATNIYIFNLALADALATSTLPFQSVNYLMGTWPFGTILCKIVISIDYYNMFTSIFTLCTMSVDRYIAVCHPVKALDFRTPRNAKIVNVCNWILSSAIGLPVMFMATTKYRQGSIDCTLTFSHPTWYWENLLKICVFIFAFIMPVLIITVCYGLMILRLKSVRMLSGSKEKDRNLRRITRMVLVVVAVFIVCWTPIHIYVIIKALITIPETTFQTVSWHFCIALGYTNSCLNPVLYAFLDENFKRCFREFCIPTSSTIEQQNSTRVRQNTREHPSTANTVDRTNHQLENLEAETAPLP

[4] = molecular target: Substance-P receptor (Cavia porcellus) (UniProt P30547); conditions: Ileum
Substance-P receptor (Cavia porcellus), sequence (P30547 whole entry): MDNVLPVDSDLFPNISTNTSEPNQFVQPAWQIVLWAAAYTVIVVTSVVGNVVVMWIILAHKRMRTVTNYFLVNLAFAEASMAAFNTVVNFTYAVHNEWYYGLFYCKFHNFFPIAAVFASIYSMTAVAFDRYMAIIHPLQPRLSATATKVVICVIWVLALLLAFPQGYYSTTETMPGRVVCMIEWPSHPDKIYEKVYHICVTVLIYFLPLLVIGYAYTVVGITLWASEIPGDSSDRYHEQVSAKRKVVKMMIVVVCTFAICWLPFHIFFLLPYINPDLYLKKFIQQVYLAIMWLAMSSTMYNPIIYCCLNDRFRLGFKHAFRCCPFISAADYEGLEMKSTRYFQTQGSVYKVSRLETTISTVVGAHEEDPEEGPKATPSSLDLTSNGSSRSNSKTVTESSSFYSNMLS

[5] = molecular target: T2, Delta-type opioid receptor (Homo sapiens, UniProt P41143); assay: Agonist activity at human opioid delta receptor expressed in mouse HN9.10 cells assessed as [35S]GTPgammaS binding; type: functional, cell-based
T2 sequence (P41143 whole entry): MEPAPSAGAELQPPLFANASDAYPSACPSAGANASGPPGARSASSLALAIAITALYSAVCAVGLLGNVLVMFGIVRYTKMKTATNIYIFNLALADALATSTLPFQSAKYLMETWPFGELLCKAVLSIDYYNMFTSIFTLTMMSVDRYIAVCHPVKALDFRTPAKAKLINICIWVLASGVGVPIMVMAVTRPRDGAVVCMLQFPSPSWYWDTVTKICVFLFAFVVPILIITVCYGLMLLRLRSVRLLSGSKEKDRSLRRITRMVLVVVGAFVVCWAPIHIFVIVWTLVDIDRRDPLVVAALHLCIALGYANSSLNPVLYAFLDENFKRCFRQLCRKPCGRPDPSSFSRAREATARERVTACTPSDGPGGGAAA

[6] = molecular target: T1, Mu-type opioid receptor; assay: Displacement of [3H]DPDPE from rat mu opioid receptor
[7] = molecular target: T3, Delta-type opioid receptor (Mus musculus, UniProt P32300)
T3 sequence (P32300 whole entry): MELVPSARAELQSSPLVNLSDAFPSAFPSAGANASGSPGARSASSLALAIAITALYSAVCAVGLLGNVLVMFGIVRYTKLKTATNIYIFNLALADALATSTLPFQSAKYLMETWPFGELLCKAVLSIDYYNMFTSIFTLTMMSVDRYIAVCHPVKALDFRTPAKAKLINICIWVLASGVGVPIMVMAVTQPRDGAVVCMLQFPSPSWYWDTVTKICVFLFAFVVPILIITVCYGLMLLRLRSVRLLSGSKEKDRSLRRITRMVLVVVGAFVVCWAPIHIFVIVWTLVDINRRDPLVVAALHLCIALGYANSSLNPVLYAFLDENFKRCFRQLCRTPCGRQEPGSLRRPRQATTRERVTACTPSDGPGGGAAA

[8] = molecular target: Mu-type opioid receptor (Cavia porcellus) (UniProt P97266); conditions: Ileum, 1 uM
Mu-type opioid receptor (Cavia porcellus), sequence (P97266 whole entry): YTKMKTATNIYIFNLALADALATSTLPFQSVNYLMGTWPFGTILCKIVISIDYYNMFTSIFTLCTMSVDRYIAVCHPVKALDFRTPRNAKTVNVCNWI

[9] = molecular target: T2, Delta-type opioid receptor; assay: Displacement of [3H]DPDPE from human delta opioid receptor
[10] = molecular target: T3, Delta-type opioid receptor; remark: listed apart in the source

Substance-P receptor, sequence (P25103 whole entry): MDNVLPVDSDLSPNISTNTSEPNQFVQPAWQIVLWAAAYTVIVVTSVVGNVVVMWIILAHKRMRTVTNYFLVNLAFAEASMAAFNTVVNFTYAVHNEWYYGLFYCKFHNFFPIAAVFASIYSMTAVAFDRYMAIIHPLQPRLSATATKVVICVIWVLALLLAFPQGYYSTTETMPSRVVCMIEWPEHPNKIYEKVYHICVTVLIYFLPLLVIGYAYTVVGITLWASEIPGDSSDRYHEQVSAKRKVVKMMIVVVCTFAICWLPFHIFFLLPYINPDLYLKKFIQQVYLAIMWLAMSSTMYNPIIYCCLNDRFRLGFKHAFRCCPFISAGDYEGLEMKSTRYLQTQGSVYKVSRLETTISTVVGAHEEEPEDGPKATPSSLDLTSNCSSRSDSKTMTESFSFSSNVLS
T1 sequence (P33535 whole entry): as the sequence (P33535 whole entry) above

Row | SMILES | EC50 [1] | pEC50 [1] | Ki [2] | pIC50 [2] | Emax [3] | Ke [4] | EC50 [5] | Ki [6] | pIC50 [6] | IC50 [7] | inhibition [8] | Ki [9] | pIC50 [9] | IC50 [2] | IC50 [10] | IC50 [6] | IC50 [9]
1 | CCCC[C@@H]1NC(=O)[C@H](Cc2ccccc2)NC(=O)CNC(=O)[C@@H](NC(=O)[C@@H](N)Cc2ccc(O)cc2)C(C)(C)SSC(C)(C)[C@H](C(=O)N2CCC[C@H]2C(=O)N[C@@H](CC(C)C)C(=O)N[C@@H](Cc2c[nH]c3ccccc23)C(=O)NCc2cc(C(F)(F)F)cc(C(F)(F)F)c2)NC(=O)[C@@H]2CCCN2C1=O | 2900 nM | 5.67 | 59 nM | 6.87 | 15% | 72 nM | 530 nM | 2000 nM | 5.43 | 250 nM | 6% | 150 nM | 6.5 | – | – | – | –
2 | CC(C)C[C@H](NC(=O)[C@@H]1CCCN1C(=O)[C@@H]1NC(=O)[C@H](Cc2ccccc2)NC(=O)CNC(=O)[C@@H](NC(=O)[C@@H](N)Cc2ccc(O)cc2)C(C)(C)SSC1(C)C)C(=O)N[C@@H](Cc1c[nH]c2ccccc12)C(=O)NCc1cc(C(F)(F)F)cc(C(F)(F)F)c1 | – | – | – | – | – | – | – | – | – | – | 26% | – | – | – | – | – | –
3 | CCCC[C@@H]1NC(=O)[C@H](Cc2ccccc2)NC(=O)CNC(=O)[C@@H](NC(=O)[C@@H](N)Cc2ccc(O)cc2)C(C)(C)SSC(C)(C)[C@@H](C(=O)N2CCC[C@H]2C(=O)N[C@@H](CC(C)C)C(=O)N[C@@H](Cc2c[nH]c3ccccc23)C(=O)NCc2cc(C(F)(F)F)cc(C(F)(F)F)c2)NC(=O)[C@@H]2CCCN2C1=O | 140 nM | – | 1.9 nM | – | 26% | 66 nM | 120 nM | 1000 nM | – | – | 7% | 720 nM | – | 4.27 nM | 1100 nM | 2040 nM | 1380 nM
4 | CC(C)C[C@H](NC(=O)[C@@H]1CCCN1C(=O)[C@H]1NC(=O)[C@H](Cc2ccccc2)NC(=O)CNC(=O)[C@@H](NC(=O)[C@@H](N)Cc2ccc(O)cc2)C(C)(C)SSC1(C)C)C(=O)N[C@@H](Cc1c[nH]c2ccccc12)C(=O)NCc1cc(C(F)(F)F)cc(C(F)(F)F)c1 | 130 nM | – | 0.18 nM | – | – | – | 120 nM | 2100 nM | – | – | 0.6% | 38 nM | – | 0.417 nM | – | 4170 nM | 72.4 nM
5 | CC(C)C[C@H](NC(=O)[C@@H]1CCCN1C(=O)[C@H]1NC(=O)[C@H](Cc2ccccc2)NC(=O)CNC(=O)[C@H](NC(=O)[C@@H](N)Cc2ccc(O)cc2)C(C)(C)SSC1(C)C)C(=O)N[C@@H](Cc1c[nH]c2ccccc12)C(=O)NCc1cc(C(F)(F)F)cc(C(F)(F)F)c1 | – | – | – | – | – | – | – | – | – | – | – | – | – | 0.0123 nM | – | 4370 nM | 3.63 nM
